From patent publication US4526888A, “Nephrotoxicity inhibitors for aminoglycoside antibiotics” (Bristol-Myers Company, priority 1983, dated 1985)
“And” between values parts separate entries of the source, which are not always exact repeats. Identical values can stand only once. Like-named read-outs stand apart in the source and are kept apart here.

Columns and labels:
[1] = tested on: renal brush border membranes of proximal tubule cells; experiment: In vitro gentamicin transport inhibition, isolated renal brush border membrane vesicles; format: biochemical; conditions: 3H-gentamicin transport, rat renal brush border membrane vesicles, 30 second incubation; multiple of aminoglycoside molar concentration
Source text: An in vitro screening program was established to study the selective inhibition of aminoglycoside transport across renal brush border membranes of proximal tubule cells. The screening tests employed isolated, purified brush border membrane as described by Kinsella et al., Biochem. Biophys. Acta., 552: 468-477 (1979) and Williams et al., Tox. Applied Pharmacol., 61: 243-251 (1981), comprising isolation and purification of rat renal cortical membranes via differential centrifugation, cationic precipitation and discontinuous sucrose gradient techniques. […] The transport was quantified by liquid scintillation techniques as described by Kinsella et al., J. Pharmacol. Exp. Ther., 209: 443-450 (1979). Gentamicin transport was characterized, FIG. 1, as to time and concentration dependency, and as to specificity. Gentamicin transport was then measured at a fixed concentration of gentamicin (0.5 mM) in the presence of prospective inhibitors at 5X molar concentration. […] The reaction media was then vacuum filtered on 0.3 micron Millipore filters. The filters were washed twice with 2 ml of the buffer and removed and counted using liquid scintillation spectroscopy techniques. […] The inhibitors were solubilized in the above-described buffer.

[2] = tested on: rats; experiment: Fourteen day subacute nephrotoxicity model in rats, histopathologic examination of renal tissue; conditions: for in vivo nephroprotective activity (in words): summary of Table III
Source text: (§1) A fourteen (14) day subacute nephrotoxicity model in rats was utilized to test the in vivo efficacy of aminoglycoside-transport inhibitor combinations. […] Though blood urea nitrogen (BUN) was monitored as a clinical parameter of renal function, the primary evaluation of nephrotoxicity in this model involves histopathologic examination of renal tissue, which is a more accurate and sensitive method for assessing nephrotoxicity [Hottendorf et al., Antimicrob.
(§2) Male Sprague-Dawley rats [Charles River Breeding Laboratories, Inc., (CRL: COBS CD (SD) BR)] approximately 6 weeks old and weighing 140-160 gms upon arrival were used. They were conditioned for at least 5 days prior to the start of the study. Only animals found to be clinically healthy were selected. Rats were identified individually by number on the tail with black marking pens. During the study the rats were housed individually in cages of the appropriate size and type in a temperature-controlled room. Rodent Laboratory Chow (pellet, Purina Ralston Company) and water was offered ad libitum.
(§3) The aminoglycoside and aminoglycoside-inhibitor mixtures were administered subcutaneously twice daily for 14 days.
(§4) All rats were euthanized by an overdose of sodium pentobarbital on study Day 15.
(§5) The kidneys were removed and examined grossly. A longitudinal section of the left kidney and a cross section of the right kidney from each rat were preserved in 10% neutral buffered Formalin for histopathological evaluation. Tissue sections (6 μm each) were stained with hematoxylin and eosin, and the resulting tissue slides were randomized, masked, and examined by a single pathologist without knowledge of the animal's treatment.
(§6) Lesions encountered in the renal cortex included tubular vacuolar or granular degeneration, peritubular inflammation, tubular necrosis, tubular dilatation, tubular basophilia, and interstitial fibrosis. The extent and distribution of each of these lesions in both kidneys of every rat were scored as follows: 0, absence of lesion; 1, lesion represented in fewer than 10% of the nephrons; 2, lesion represented in 10 to 50% of the nephrons; 3, lesion represented in 50 to 90% of the nephrons; and 4, lesion represented in more than 90% of the nephrons. Since these lesions are all interrelated and represent various stages of proximal tubular damage, the lesion scores were summed to produce a single nephrotoxicity response for each animal, with a possible severity range of 0 to 24.
(§7) Nephrotoxicity was monitored by blood urea nitrogen (BUN) analysis and histopathologic examination of renal tissue.
(§8) Aminoglycosides and aminoglycoside-inhibitor mixtures were administered subcutaneously twice daily for fourteen days.
(§9) All rats were euthanized by an overdose of sodium pentobarbital on study Day 15. The kidneys were removed, examined grossly and placed in 10% neutral buffered formalin for subsequent histopathologic evaluation.

[3] = tested on: rats; conditions: rat, in vivo
Source text: as §1, §2, §3, §4, §5, §6, §7, §8, §9

[4] = multiple of AG dose: Molar 0.1 (Mg 0.7 Lysine20, 2 Asparagine90)
[5] = multiple of AG dose: Molar 0.3 (Mg 15 Lysine10, 10 Aspartic acid90, 6 Asparagine90)
[6] = multiple of AG dose: Molar 1 (Mg 15 Glutamic acid60, 20 Asparagine90)

Compound: Poly-l-asparagine90
- I50 (molar multiples producing 50% transport inhibition) [1]: 0.1 X
- Nephroprotective Activity [2, 4]: + (less than 50% reduction)
- Nephroprotective Activity ([2]; multiple of AG dose: Molar 0.15, Mg 3): + (less than 50% reduction)
- Nephroprotective Activity [2, 5]: + (less than 50% reduction)
- Nephroprotective Activity ([2]; multiple of AG dose: Molar 0.5, Mg 10): +++ (reduction 100%)
- Nephroprotective Activity [2, 6]: +++ (reduction 100%)
- in vivo nephroprotective activity (in words) [2]: greatest degree of in vivo nephroprotective activity

Compound: polylysine20
- I50 (molar multiples producing 50% transport inhibition) [1]: 0.05 X
- Nephroprotective Activity [2, 4]: + (less than 50% reduction)
- in vivo nephroprotective activity (in words) [2]: showed any nephroprotective activity

Compound: O=S(=O)([O-])CO.[Na+] [Sodium formaldehyde bisulfite]
- I50 (molar multiples producing 50% transport inhibition) [1]: 10 X
- Nephroprotective Activity ([2]; multiple of AG dose: Molar 136, Mg 40): + (less than 50% reduction)

Compound: Tetralysine [Lysine4]
- I50 (molar multiples producing 50% transport inhibition) [1]: 10 X
- Nephroprotective Activity ([2]; multiple of AG dose: Molar 16, Mg 25): 0

Compound: gentamicin sulfate [GENTM]
- Histopath. Score (TOTAL), group value below animal scores ([2]; Example II Group II, gentamicin 10 mg/kg sc twice daily 14 days): 4.2
- Histopath. Score (TOTAL), individual animal ([2]; Example II Group II, gentamicin 10 mg/kg sc twice daily 14 days, Day 15, range 0 to 24): 1 and 5 and 6 and 4
- Histopath. Score (TOTAL), group value below animal scores ([2]; Example II Group III, gentamicin 20 mg/kg): 4.8
- Histopath. Score (TOTAL), individual animal ([2]; Example II Group III, gentamicin 20 mg/kg sc twice daily 14 days): 4 and 3 and 5 and 8
- Histopath. Score (TOTAL), group value below rat scores ([2]; Example III Group II, gentamicin 20 mg/kg): 8.8
- Histopath. Score (TOTAL), individual rat ([2]; Example III Group II, gentamicin 20 mg/kg sc twice daily fourteen days): 8 and 9 and 10
- nephrotoxicity in this test (conclusion in words) ([2]; aminoglycoside alone groups): demonstrates the nephrotoxicity of gentamicin
- dose necessary to elicit a significant and reproducible nephrotoxic response ([2]; bid, 14 days, rats): 20 mg/kg/day

Compound: Poly-l-aspartic Acid90
- I50 (molar multiples producing 50% transport inhibition) [1]: < 0.1 X
- Nephroprotective Activity [2, 5]: +++ (reduction 100%)
- in vivo nephroprotective activity (in words) [2]: greatest degree of in vivo nephroprotective activity

Compound: Poly-l-lysine10
- I50 (molar multiples producing 50% transport inhibition) [1]: 1 X
- Nephroprotective Activity [2, 5]: 0

Compound: NCCCNCCCCNCCCN [Spermine]
- I50 (molar multiples producing 50% transport inhibition) [1]: 3 X

Compound: Poly-l-glutamic Acid60
- I50 (molar multiples producing 50% transport inhibition) [1]: < 0.1 X
- Nephroprotective Activity [2, 6]: 0

Compound: NCC[C@H](O)C(=O)N[C@@H]1C[C@H](N)[C@@H](O[C@H]2O[C@H](CN)[C@@H](O)[C@H](O)[C@H]2O)[C@H](O)[C@H]1O[C@H]1O[C@H](CO)[C@@H](O)[C@H](N)[C@H]1O.O=S(=O)(O)O.O=S(=O)(O)O [AMIKACIN, amikacin sulfate]
- nephrotoxicity in this test (conclusion in words) [3]: demonstrates the nephrotoxicity of amikacin
